In experiment [1] the test system is T1, oxidase I (laccase-like oxidase I of C. geniculata VKM F-3561).
T1 construct: native, purified from culture liquid; glycosylated oligomer about 1035 kDa, subunit about 63 kDa deglycosylated
The experiment can be described thus: spectrophotometric oxidation assay. It counts as biochemical, Curvularia geniculata. The conditions noted are these: apparent, error < 10%. The source says: spectrophotometric oxidation assay on oxidase I (laccase-like oxidase I of C. geniculata VKM F-3561)

The subject of experiment [2] is T2, oxidase II (laccase-like oxidase II of C. geniculata VKM F-3561).
T2 construct: native, purified from culture liquid; glycosylated oligomer about 870 kDa, subunit about 63 kDa deglycosylated
The experiment can be described thus: spectrophotometric oxidation assay. The conditions noted are these: apparent, error < 10%. It counts as biochemical, Curvularia geniculata. The source says:
spectrophotometric oxidation assay on oxidase II (laccase-like oxidase II of C. geniculata VKM F-3561)

What is called Km is the substrate concentration at which the rate is half of its maximum.

Each structure is given as a SMILES string.

As to `COc1cc(/C=C/C(=O)O)ccc1O` [ferulic acid], the Km turned out to be 37.6 µM in experiment [1] (50 mM Tris-HCl buffer pH 7.2) and 51 µM in experiment [2] (50 mM Tris-HCl buffer pH 7.2).

Regarding `COc1cccc(OC)c1O` [2,6-dimethoxyphenol], the figures for the Km in experiment [1] (50 mM Tris-HCl buffer pH 7.2) and in experiment [2] (50 mM Tris-HCl buffer pH 7.2) were 26 µM and 108 µM, respectively.

Take `COc1cc(C=NN=Cc2cc(OC)c(O)c(OC)c2)cc(OC)c1O` [syringaldazine, 4-hydroxy-3,5-dimethoxybenzaldehyde azine]: the values for the Km in experiment [1] (50 mM Tris-HCl buffer pH 7.2) and in experiment [2] (50 mM Tris-HCl buffer pH 7.2) were 2.3 µM and 46 µM, respectively.

For the molecule `CCn1c(=NN=c2sc3cc(S(=O)(=O)O)ccc3n2CC)sc2cc(S(=O)(=O)O)ccc21` [ABTS, 2,2′-azino-bis(3-ethylbenzothiazoline 6-sulfonic acid)], the figures for the Km in experiment [1] (20 mM Na-acetate buffer pH 5.0) and in experiment [2] (20 mM Na-acetate buffer pH 5.0) were 280 µM and 152 µM, respectively.

Regarding `COc1cc(/C=C/CO)ccc1O` [coniferyl alcohol], the Michaelis-Menten constant (Km) in experiment [1] (50 mM Tris-HCl buffer pH 7.2) stood at 130 µM; in experiment [2] (50 mM Tris-HCl buffer pH 7.2), 125 µM.

These data come from article PMC10673308, “Unusual Oligomeric Laccase-like Oxidases from Ascomycete Curvularia geniculata VKM F-3561 Polymerizing Phenylpropanoids and Phenolic Compounds under Neutral Environmental Conditions” (Microorganisms, 2023).
